Results taken from ChEMBL document CHEMBL1129570, “2-(Hydroxyalkyl)estradiols: synthesis and biological evaluation” (J Med Chem, 1996).

Columns and labels:
Estrogen receptor [1] = biological target: T1, Estrogen receptor (Homo sapiens, UniProt Q92731+P03372); assay: Affinity estrogen receptor of MCF-7 human mammary cancer cells; format: cell-based; settings: mcf7
Estrogen receptor [2] = biological target: T1, Estrogen receptor; assay: (§1) Induction of pS2 mRNA expression in human MCF-7 mammary carcinoma cells; format: functional, cell-based; settings: mcf7
Estrogen receptor [3] = biological target: T1, Estrogen receptor; assay: as §1; format: functional, cell-based; settings: mcf7; remark: listed apart in the source
Estrogen receptor [4] = biological target: T1, Estrogen receptor; assay: Affinity for estrogen receptor; format: protein assay

Row | SMILES | EC50 (Estrogen receptor [1]) [nM] | EC50 (Estrogen receptor [2]) [nM] | EC50 (Estrogen receptor [3]) [nM] | EC50 (Estrogen receptor [4]) [nM]
1 | C[C@]12CC[C@@H]3c4cc(O)c(O)cc4CC[C@H]3[C@@H]1CC[C@@H]2O | 1660 | 504 | – | –
2 | C[C@]12CC[C@@H]3c4cc(C=O)c(O)cc4CC[C@H]3[C@@H]1CC[C@@H]2O | 782 | – | – | –

Second part, the molecule after the results:

Row | EC50 (Estrogen receptor [1]) [nM] | EC50 (Estrogen receptor [2]) [nM] | EC50 (Estrogen receptor [3]) [nM] | EC50 (Estrogen receptor [4]) [nM] | SMILES
3 | 5220 | 495 | 0.004 | – | C[C@]12CC[C@@H]3c4cc(CCCO)c(O)cc4CC[C@H]3[C@@H]1CC[C@@H]2O
4 | 342 | 10.3 | 2.79 | 146 | C[C@]12CC[C@@H]3c4cc(CO)c(O)cc4CC[C@H]3[C@@H]1CC[C@@H]2O
5 | 4890 | 272 | – | – | C[C@]12CC[C@@H]3c4cc(CCO)c(O)cc4CC[C@H]3[C@@H]1CC[C@@H]2O
